Test results as given in patent EP0097039A1, “5-(E-2-halovinyl)-2'-deoxyuridine derivatives, processes for their preparation, pharmaceutical compositions containing them, and their use in treating viral infections” (BEECHAM GROUP PLC, priority 1982, dated 1983).
Values joined by “and” are separate entries in the source; they are usually repeats but may differ in a detail not shown here. Equal values may be shown once. Read-outs that look alike come from different tables or passages of the source.

Tests used:
[1] = test system: Herpes Simplex type 1 virus (HFEM strain); experiment: plaque reduction assay in Vero cells infected with Herpes Simplex type 1 virus; format: cell-based
Method: (§1) Vero (African Green Monkey Kidney) cells were grown to confluence in 24 well multidishes, each well being 1.6 cm in diameter. The cells were infected with Herpes Simplex type 1 virus (HFEM strain) and overlaid with 0.5 mL of 0.9% agarose (w/v) in maintenance medium in concentrations ranging from 100 to 0.03 µg/ml in half-log dilution steps, were added in 0.5 mL volume. The virus infected cultures were then incubated at 37 °C for 4 days before fixing in 4% formaldehyde solution and staining with carbolfuchsin.

[2] = cytotoxicity (minimum toxic concentration) in the infected Vero cell cultures; format: cell-based, African Green Monkey; conditions: monkey; minimum concentration of test compound which caused cytotoxicity; Vero cells, highest concentration tested 100 µg/ml; read-out: MTD
Method: as §1

[3] = test system: Vero (African Green Monkey Kidney) cells; experiment: as above; format: cell-based; conditions: vero cells, 96 h
Method: as §1

[4] = Human alphaherpesvirus 1, 96 h, concentration causing 50% reduction in number of virus plaques, Vero cells, HSV-1 HFEM strain, 4 days at 37 C, read-out: PDD50 (the source's name)
[5] = Human alphaherpesvirus 1, 96 h, same PD50 expressed in µM, Vero cells, HSV-1 HFEM strain, 4 days at 37 C, read-out: PDD50 (the source's name)
[6] = concentration causing 50% reduction in number of virus plaques, Vero cells, HSV-1 HFEM strain, 4 days at 37 C
[7] = same PD50 expressed in µM, Vero cells, HSV-1 HFEM strain, 4 days at 37 C, read-out: PDD50 (the source's name)
[8] = Human alphaherpesvirus 1, Vero, 96 h, read-out: PDD50

Row | Molecule | EC50 [1, 4] | EC50 [1, 5] | MCC at 96 h [2] | PDD50 [1, 6] | EC50 [1, 7] | MTD [3] | EC50 [1, 8]
1 | COCC(=O)OC[C@H]1O[C@@H](n2cc(/C=C/Br)c(=O)[nH]c2=O)C[C@@H]1OC(=O)COC [Example 28, 5-(E-2-Bromovinyl)-2'-deoxy-3',5'-di-O-(methoxyacetyl)-uridine] | 0.17 µg/mL | 0.36 µM | > 100 µg/mL |  |  |  | 
2 | CCCN(CCC)S(=O)(=O)c1ccc(C(=O)OCC(=O)O[C@H]2C[C@H](n3cc(/C=C/Br)c(=O)[nH]c3=O)O[C@@H]2CO)cc1 [Example 8, E-5-(2-Bromovinyl)-3'-(4-dipropylsulphanoylbenzoyloxyacetyl)-2'-deoxyuridine] | 0.22 µg/mL | 0.33 µM | > 100 µg/mL |  |  |  | 
3 | CC(C)C[C@H](O)C(=O)OC[C@H]1O[C@@H](n2cc(/C=C/Br)c(=O)[nH]c2=O)C[C@@H]1OC(=O)[C@@H](O)CC(C)C [Example 26, 5-(E-2-Bromovinyl)-2'-deoxy-3',5-di-O-(L-2-hydroxy-4-methylpentanoyl)uridine] | 0.16 µg/mL | 0.29 µM | > 100 µg/mL |  |  |  | 
4 | CC(Cl)C(=O)OC[C@H]1O[C@@H](n2cc(/C=C/Br)c(=O)[nH]c2=O)C[C@@H]1OC(=O)C(C)Cl (stereo partly drawn) [Example 4] | 0.14 µg/mL | 0.27 µM | > 100 µg/mL |  |  |  | 
5 | CC(C)(Oc1ccc(Cl)cc1)C(=O)OCC(=O)OC[C@H]1O[C@@H](n2cc(/C=C/Br)c(=O)[nH]c2=O)C[C@@H]1OC(=O)COC(=O)C(C)(C)Oc1ccc(Cl)cc1 [Example 9, E-5-(2 Bromovinyl)-3',5'-bis(2-(4-chlorophenoxy)-2-methylpropionyloxy-acetyl]-2'-deoxyuridine] | 1.47 µg/mL | 1.75 µM | > 100 µg/mL |  |  |  | 
6 | E-5-(2-Bromovinyl)-3'-trimethylsilyl-5'-(4-dipropylsulphamoylbenzoyl- oxyacetyl)-2'-deoxyuridine [Example 14] |  |  |  | 0.32 µg/mL | 0.48 µM | >100 µg/mL | 
7 | O=C(OC[C@H]1O[C@@H](n2cc(/C=C/Br)c(=O)[nH]c2=O)C[C@@H]1OC(=O)[C@H](O)c1ccccc1)[C@H](O)c1ccccc1 [Example 30] | 0.66 µg/mL | 1.1 µM | > 100 µg/mL |  |  |  | 
8 | O=C(OC[C@H]1O[C@@H](n2cc(/C=C/Br)c(=O)[nH]c2=O)C[C@@H]1O)[C@@H](O)c1ccccc1 [Example 23, 5-(E-2-Bromovinyl)-2'-deoxy-5'-O-[(2S)-hydroxyphenylacetyl]uridine] | 0.16 µg/mL | 0.34 µM | > 100 µg/mL |  |  |  | 
9 | O=C(COc1ccccc1)OC[C@H]1O[C@@H](n2cc(/C=C/Br)c(=O)[nH]c2=O)C[C@@H]1OC(=O)COc1ccccc1 [Example 36, 5-(E-2-Bromovinyl)-2'-deoxy-3',5'-di-0-(phenoxyacetyl)-uridine] | 0.57 µg/mL | 0.95 µM | > 100 µg/mL |  |  |  | 
10 | CCC(Br)C(=O)OC[C@H]1O[C@@H](n2cc(/C=C/Br)c(=O)[nH]c2=O)C[C@@H]1O (stereo partly drawn) [Example 33, 5-(E-2-Bromovin^yl)-5'-0-(2-bromobutyryl)-2'-deoxyuridine] | 0.16 µg/mL | 0.37 µM | > 100 µg/mL |  |  |  | 
11 | CCC(Br)C(=O)OC[C@H]1O[C@@H](n2cc(/C=C/Br)c(=O)[nH]c2=O)C[C@@H]1OC(=O)C(Br)CC (stereo partly drawn) [Example 34, 5-(E-2-Bromovinyl)-3'-5'-di-O-(2-bromobutyryl) -2'-deoxyuridine] | 0.2 µg/mL | 0.32 µM | 100 µg/mL |  |  |  | 
12 | O=C(OC[C@H]1O[C@@H](n2cc(/C=C/Br)c(=O)[nH]c2=O)C[C@@H]1OC(=O)[C@@H](O)c1ccccc1)[C@@H](O)c1ccccc1 [Example 24, 5-(E-2-Bromovinyl)-2'-deoxy-3', 5'-di-O-[(2S)-hydroxyphenylacetyl]uridine] | 0.45 µg/mL | 0.75 µM | > 100 µg/mL |  |  |  | 
13 | CC(=O)OC(C)C(=O)OC[C@H]1O[C@@H](n2cc(/C=C/Br)c(=O)[nH]c2=O)C[C@@H]1O (stereo partly drawn) [Example 10, E-5-(2-Bromovinyl)-5'-(2-acetoxypropionyl)-2'-deoxyuridine] | 0.18 µg/mL | 0.4 µM | > 100 µg/mL |  |  |  | 
14 | CC(C)C[C@H](O[Si](C)(C)C(C)(C)C)C(=O)OC[C@H]1O[C@@H](n2cc(/C=C/Br)c(=O)[nH]c2=O)C[C@@H]1OC(=O)[C@H](CC(C)C)O[Si](C)(C)C(C)(C)C [Example 32, 5-(E-2-Bromovilnyl)-3' ,5'-di-O-(L-2-t-butyldimethylsilyloxy-4-methylpentanoyl)-2'-deoxyuridirie] |  |  | > 100 µg/mL |  |  |  | 4.9 µg/mL and 6.2 µM
15 | O=C(CCl)OC[C@H]1O[C@@H](n2cc(/C=C/Br)c(=O)[nH]c2=O)C[C@@H]1OC(=O)CCl [Example 1, E-5-(2-Bromovinyl)-3',5'-bis (chloroacetyl)-2'-deoxyuridine] | 0.14 µg/mL | 0.29 µM | > 100 µg/mL |  |  |  | 
16 | CCCN(CCC)S(=O)(=O)c1ccc(C(=O)OCC(=O)OC[C@H]2O[C@@H](n3cc(/C=C/Br)c(=O)[nH]c3=O)C[C@@H]2OC(=O)COC(=O)c2ccc(S(=O)(=O)N(CCC)CCC)cc2)cc1 [Example 6, E-5-(2-Bromovinyl)-3',5'-Bis (4-dipropylsulphamoylbenzoyloxyacetyl)-2'-deoxyuridine] | 2.03 µg/mL | 2.06 µM | > 100 µg/mL |  |  |  | 
17 | CC(Cl)C(=O)OC[C@H]1O[C@@H](n2cc(/C=C/Br)c(=O)[nH]c2=O)C[C@@H]1O (stereo partly drawn) [Example 5] | 0.14 µg/mL | 0.33 µM | > 100 µg/mL |  |  |  | 
18 | COCC(=O)OC[C@H]1O[C@@H](n2cc(/C=C/Br)c(=O)[nH]c2=O)C[C@@H]1O [Example 27, 5-(E-2-Bromovinyl)-2'-deoxy-5'-O-(methoxyacetyl)uridine] | 0.12 µg/mL | 0.3 µM | > 100 µg/mL |  |  |  | 
19 | O=C(OC[C@H]1O[C@@H](n2cc(/C=C/Br)c(=O)[nH]c2=O)C[C@@H]1O)C(Cl)c1ccccc1 (stereo partly drawn) [Example 21] | 0.07 µg/mL | 0.14 µM | > 100 µg/mL |  |  |  | 
20 | O=C(OC[C@H]1O[C@@H](n2cc(/C=C/Br)c(=O)[nH]c2=O)C[C@@H]1O)[C@H](O)c1ccccc1 [Example 29] | 0.22 µg/mL | 0.47 µM | > 100 µg/mL |  |  |  | 
21 | CC(C)C[C@H](O)C(=O)OC[C@H]1O[C@@H](n2cc(/C=C/Br)c(=O)[nH]c2=O)C[C@@H]1O [Example 25, 5-(E-2-Bromovinyl)-2'-deoxy-5'-0-(L-2-hydroxy-4-methyl-pentanoyl)uridine] | 0.15 µg/mL | 0.34 µM | > 100 µg/mL |  |  |  | 
22 | O=C(OC[C@H]1O[C@@H](n2cc(/C=C/Br)c(=O)[nH]c2=O)C[C@@H]1OC(=O)C(Cl)c1ccccc1)C(Cl)c1ccccc1 (stereo partly drawn) [Example 22] | 0.34 µg/mL | 0.53 µM | > 100 µg/mL |  |  |  | 
23 | O=C(CCl)OC[C@H]1O[C@@H](n2cc(/C=C/Br)c(=O)[nH]c2=O)C[C@@H]1O [Example 2, E-5-(2-Bromovinyl)-5'-chloroacetyl-2'-deoxyuridine] | 0.12 µg/mL | 0.29 µM | > 100 µg/mL |  |  |  | 
24 | CC(C)C[C@H](O[Si](C)(C)C(C)(C)C)C(=O)OC[C@H]1O[C@@H](n2cc(/C=C/Br)c(=O)[nH]c2=O)C[C@@H]1O [Example 31, 5-(E-2-Bromovinyl)-5'-O-(L-2-t-butyldimethylsilyloxy-4-methylpentanoyl)-2'-deoxyurudine] |  |  | > 100 µg/mL |  |  |  | 0.53 µg/mL and 940 nM
25 | CCCN(CCC)S(=O)(=O)c1ccc(C(=O)OCC(=O)OC[C@H]2O[C@@H](n3cc(/C=C/Br)c(=O)[nH]c3=O)C[C@@H]2O)cc1 [Example 7, E-5-(2 Bromovinyl)-5'-(4-dipropylsulphamoylbenzoyloxyacetyl)-2'-deoxyuridine] | 0.24 µg/mL | 0.37 µM | > 100 µg/mL |  |  |  | 
26 | O=C(OC[C@H]1O[C@@H](n2cc(/C=C/Br)c(=O)[nH]c2=O)C[C@@H]1OC(=O)[C@@H](O)Cc1ccccc1)[C@@H](O)Cc1ccccc1 [Example 19, E-5-(2-bromovinyl)-3', 5' -bis(L-2-hydroxy-3-phenylpropionyl)-2'-deoxyuridine] | 0.43 µg/mL | 0.68 µM | > 100 µg/mL |  |  |  | 
27 | E-5-(2-Bromovinyl)-5'-(L-2-t-butyldimethylsilyloxy-3-phenylpropionyl)-2'-deoxyuridine [Example 16] |  |  |  | 0.63 µg/mL | 0.68 µM | >100 µg/mL | 
28 | CC(C)(C)[Si](C)(C)O[C@@H](Cc1ccccc1)C(=O)OC[C@H]1O[C@@H](n2cc(/C=C/Br)c(=O)[nH]c2=O)C[C@@H]1OC(=O)[C@H](Cc1ccccc1)O[Si](C)(C)C(C)(C)C [Example 18, E-5-(2-Bromovinyl)-3',5'-bis(L-2-t-butyldimethylsilyloxy-3-penylpropionyl)-2'-deoxyuridine] |  |  | > 100 µg/mL |  |  |  | > 100 µg/mL
29 | O=C(O[C@H]1C[C@H](n2cc(/C=C/Br)c(=O)[nH]c2=O)O[C@@H]1CO)C(Cl)c1ccccc1 (stereo partly drawn) [Example 20, E-5-(2-Bromovinyl)-3'-(2-chlorophenylacetyl)-2'-deoxyuridine] | 0.18 µg/mL | 0.37 µM | > 100 µg/mL |  |  |  | 
30 | O=C(COc1ccccc1)OC[C@H]1O[C@@H](n2cc(/C=C/Br)c(=O)[nH]c2=O)C[C@@H]1O [Example 35, 5-(E-2-Bromovinyl)-2'-deoxy-5'-O-(phenoxyacetyl)uridine] | 0.18 µg/mL | 0.38 µM | > 100 µg/mL |  |  |  | 
